# According to US12606528B2, “Methods and materials for inhibiting NF-kB activity” (University of Pittsburgh - Of the Commonwealth System of …, priority 2019, dated 2026):
# Test system: NF-κB
# Test: NF-κB assay: THP1-NF-κB-LUC cells, LPS-stimulated secreted luciferase
# Type: cell-based
# Settings: THP1-NF-κB-LUC cells, LPS-stimulated; read-out: IC50 (NF-κB assay)
# In short: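 THP1-NF-κB-LUC cells (25k/well) were pretreated with compounds for 2 h, then stimulated with LPS (10 ng/mL) for 18 h. Secreted luciferase was measured and normalized to vehicle, and IC50 was fitted from the concentration series.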
row,SMILES,IC50
1,CC(C)S(=O)(=O)[C@@H]1CN(Cc2ccccc2)C[C@H]1S(=O)(=O)c1ccc(F)cc1 (racemic) [BC19643],> 10 µM
2,CC(=O)N1C[C@@H](S(=O)(=O)c2ccc(F)cc2)[C@H](S(=O)(=O)C(C)C)C1 (racemic) [BC19670],1 to 10 µM
3,CC(C)S(=O)(=O)[C@H]1CN(C(=O)c2ccccc2)C[C@@H]1S(=O)(=O)c1ccc(F)cc1 (racemic) [BC19683],> 10 µM
4,CC(C)S(=O)(=O)[C@H]1CN(C2CCOCC2)C[C@@H]1S(=O)(=O)c1ccc(F)cc1 (racemic) [BC19684],> 10 µM
5,Cn1cnnc1-c1ccc2nc(-c3ccc(F)cc3)c(-c3ccc(F)cc3)nc2c1 [BC19101],< 0.1 µM
6,Cc1nnc(-c2ccc3nc(-c4ccc(F)cc4)c(-c4ccc(F)cc4)nc3c2)[nH]1 [BC19102],0.1 to 1 µM

# Same assay, conditions: THP1-NF-κB-LUC cells; compounds 2 hours before LPS (10 ng/mL) for 18 hours; secreted luciferase; read-out: IC50 (NF-κB assay)
row,SMILES,IC50
1,Cc1cc2c(cc1S(=O)(=O)Nc1cc(F)ccc1F)OCC(=O)N2 [BC181311],< 0.1 µM
2,Cc1cc2c(cc1S(=O)(=O)Nc1cccc(C)c1C)OCC(=O)N2 [BC181312],1 to 10 µM
3,Cc1cc2c(cc1S(=O)(=O)Nc1c(C)cccc1C(C)C)OCC(=O)N2 [BC181313],> 10 µM
4,CSc1cccc(NS(=O)(=O)c2cc3c(cc2C)NC(=O)CO3)c1 [BC181314],< 0.1 µM
5,Cc1cc2c(cc1S(=O)(=O)Nc1ccc(CC(F)(F)F)cc1)OCC(=O)N2 [BC181315],< 0.1 µM
6,Cc1cc2c(cc1S(=O)(=O)N(C)c1ccc(Br)cc1)OCC(=O)N2 [BC181316],> 10 µM
7,COc1cccc(NS(=O)(=O)c2cc3c(cc2C)N(C(C)=O)CCO3)c1 [BC181317],> 10 µM
8,CC(=O)N1CCOc2cc(S(=O)(=O)Nc3c(C)cccc3C)c(C)cc21 [BC181318],> 10 µM
9,COc1ccc(NS(=O)(=O)c2cc3c(cc2C)N(C)CCO3)cc1 [BC181319],> 10 µM
10,Cc1cccc(NS(=O)(=O)c2cc3c(cc2C)N(C)CCO3)c1 [BC181320],> 10 µM
11,Cc1cc2c(cc1S(=O)(=O)Nc1cccc(Br)c1)OCC(=O)N2 [BC181321],< 0.1 µM
12,COc1ccc(NS(=O)(=O)c2cc3c(cc2C)NC(=O)CO3)cc1OC [BC181322],> 10 µM
13,Cc1cc2c(cc1S(=O)(=O)Nc1c(C)cccc1C)OCC(=O)N2 [BC181323],> 10 µM
14,COc1cc(NS(=O)(=O)c2cc3c(cc2C)NC(=O)CO3)cc(OC)c1OC [BC181324],> 10 µM
15,CCc1cccc(CC)c1NS(=O)(=O)c1cc2c(cc1C)NC(=O)CO2 [BC181325],> 10 µM
16,COc1ccc(C)cc1NS(=O)(=O)c1cc2c(cc1C)NC(=O)CO2 [BC181326],> 10 µM
17,COc1ccc(N(C)S(=O)(=O)c2cc3c(cc2C)NC(=O)CO3)c(OC)c1 [BC181327],> 10 µM
18,COc1ccc(NS(=O)(=O)c2cc3c(cc2C)N(C(C)=O)CCO3)cc1 [BC181328],> 10 µM
19,CCc1ccc(NS(=O)(=O)c2cc3c(cc2C)N(C(C)=O)CCO3)cc1 [BC181329],1 to 10 µM
20,Cc1cc2c(cc1S(=O)(=O)Nc1ccc(Cl)cc1)OCCN2C [BC181330],1 to 10 µM
21,Cc1cc2c(cc1S(=O)(=O)Nc1ccc(F)c(Cl)c1)OCC(=O)N2 [BC181331],< 0.1 µM
22,CCNS(=O)(=O)c1cc2c(cc1C)NC(=O)CO2 [BC181332],> 10 µM
23,COc1ccc(NS(=O)(=O)c2cc3c(cc2C)NC(=O)CO3)cc1 [BC181333],1 to 10 µM
24,CCOC(=O)c1cccc(NS(=O)(=O)c2cc3c(cc2C)NC(=O)CO3)c1 [BC181334],1 to 10 µM
25,Cc1ccc(C)c(NS(=O)(=O)c2cc3c(cc2C)NC(=O)CO3)c1 [BC181335],> 10 µM

row,SMILES,IC50
1,Cc1cc2c(cc1S(=O)(=O)Nc1ccc(C(C)C)cc1)OCC(=O)N2 [BC181336],< 0.1 µM
2,CCOc1ccc(OCC)c(NS(=O)(=O)c2cc3c(cc2C)NC(=O)CO3)c1 [BC181337],> 10 µM
3,CCCN(c1ccccc1OC)S(=O)(=O)c1cc2c(cc1C)NC(=O)CO2 [BC181338],1 to 10 µM
4,CC(=O)N1CCOc2cc(S(=O)(=O)Nc3ccccc3Br)c(C)cc21 [BC181339],> 10 µM
5,CCOc1ccc(NS(=O)(=O)c2cc3c(cc2C)N(C(C)=O)CCO3)cc1 [BC181340],> 10 µM
6,Cc1cc2c(cc1S(=O)(=O)Nc1ccc(F)cc1F)OCCN2C [BC181341],1 to 10 µM
7,Cc1cc2c(cc1S(=O)(=O)Nc1ccc3c(c1)OCCO3)OCC(=O)N2 [BC181342],0.1 to 1 µM
8,Cc1ccc(NS(=O)(=O)c2cc3c(cc2Cl)NC(=O)CO3)cc1F [BC181343],< 0.1 µM
9,Cc1cc2c(cc1S(=O)(=O)Nc1ccccc1Br)OCC(=O)N2 [BC181344],0.1 to 1 µM
10,CCN(c1ccccc1)S(=O)(=O)c1cc2c(cc1C)NC(=O)CO2 [BC181345],> 10 µM
11,Cc1ccc(NS(=O)(=O)c2cc3c(cc2C)NC(=O)CO3)c(C)c1 [BC181346],> 10 µM
12,CCc1cccc(NS(=O)(=O)c2cc3c(cc2C)NC(=O)CO3)c1 [BC181347],1 to 10 µM
13,CCN(CC)c1ccc(NS(=O)(=O)c2cc3c(cc2C)NC(=O)CO3)c(C)c1 [BC181348],> 10 µM
14,CCN(c1ccc(OC)cc1)S(=O)(=O)c1cc2c(cc1C)NC(=O)CO2 [BC181349],> 10 µM
15,CC(=O)N1CCOc2cc(S(=O)(=O)Nc3cccc(Cl)c3)c(C)cc21 [BC181350],1 to 10 µM
16,CCc1ccc(NS(=O)(=O)c2cc3c(cc2C)N(C)CCO3)cc1 [BC181352],> 10 µM
17,Cc1ccc(NS(=O)(=O)c2cc3c(cc2C)NC(=O)CO3)cc1F [BC181353],< 0.1 µM
18,Cc1cc2c(cc1S(=O)(=O)Nc1cccc(Cl)c1)OCC(=O)N2 [BC181354],< 0.1 µM
19,Cc1cc2c(cc1S(=O)(=O)Nc1ccc(Cl)cc1)OCC(=O)N2 [BC181355],< 0.1 µM
20,CCc1ccccc1NS(=O)(=O)c1cc2c(cc1C)NC(=O)CO2 [BC181356],> 10 µM
21,COc1ccc(OC)c(NS(=O)(=O)c2cc3c(cc2C)NC(=O)CO3)c1 [BC181357],> 10 µM
22,COc1ccc(Cl)cc1NS(=O)(=O)c1cc2c(cc1C)NC(=O)CO2 [BC181358],> 10 µM
23,Cc1cccc(N(C)S(=O)(=O)c2cc3c(cc2C)NC(=O)CO3)c1 [BC181359],> 10 µM
24,COc1ccc(OC)c(N(C)S(=O)(=O)c2cc3c(cc2C)NC(=O)CO3)c1 [BC181360],> 10 µM
25,CC(=O)N1CCOc2cc(S(=O)(=O)Nc3ccc(Cl)cc3)c(C)cc21 [BC181361],0.1 to 1 µM

row,SMILES,IC50
1,CC(=O)N1CCOc2cc(S(=O)(=O)Nc3ccc(C(C)C)cc3)c(C)cc21 [BC181362],1 to 10 µM
2,Cc1cc2c(cc1S(=O)(=O)Nc1cccc(F)c1)OCCN2C [BC181363],> 10 µM
3,Cc1cc2c(cc1S(=O)(=O)Nc1ccc(F)c(F)c1)OCC(=O)N2 [BC181364],0.1 to 1 µM
4,Cc1cc2c(cc1S(=O)(=O)Nc1cc(C(F)(F)F)cc(C(F)(F)F)c1)OCC(=O)N2 [BC181365],1 to 10 µM
5,Cc1ccc(Cl)cc1NS(=O)(=O)c1cc2c(cc1C)NC(=O)CO2 [BC181366],1 to 10 µM
6,CCc1ccc(NS(=O)(=O)c2cc3c(cc2C)NC(=O)CO3)cc1 [BC181367],< 0.1 µM
7,Cc1ccc(NS(=O)(=O)c2cc3c(cc2C)NC(=O)CO3)cc1C [BC181368],1 to 10 µM
8,COc1ccc(NS(=O)(=O)c2cc3c(cc2C)NC(=O)CO3)cc1Cl [BC181369],1 to 10 µM
9,Cc1ccc(NS(=O)(=O)c2cc3c(cc2C)NC(=O)CO3)cc1 [BC181370],< 0.1 µM
10,CC(=O)c1ccc(NS(=O)(=O)c2cc3c(cc2C)N(C(C)=O)CCO3)cc1 [BC181371],> 10 µM
11,CC(=O)N1CCOc2cc(S(=O)(=O)Nc3ccc(F)cc3F)c(C)cc21 [BC181372],1 to 10 µM
12,CCc1cccc(NS(=O)(=O)c2cc3c(cc2C)N(C(C)=O)CCO3)c1 [BC181373],> 10 µM
13,CCOc1ccc(NS(=O)(=O)c2cc3c(cc2C)N(C)CCO3)cc1 [BC181374],> 10 µM
14,Cc1cc2c(cc1S(=O)(=O)Nc1ccc(F)cc1Cl)OCC(=O)N2 [BC181375],0.1 to 1 µM
15,COc1ccc(NS(=O)(=O)c2cc3c(cc2C)NC(=O)CO3)c(OC)c1 [BC181376],> 10 µM
16,Cc1cc2c(cc1S(=O)(=O)Nc1cccc(F)c1)OCC(=O)N2 [BC181377],< 0.1 µM
17,Cc1cc(C)cc(NS(=O)(=O)c2cc3c(cc2C)NC(=O)CO3)c1 [BC181378],1 to 10 µM
18,CCOc1ccccc1NS(=O)(=O)c1cc2c(cc1C)NC(=O)CO2 [BC181379],> 10 µM
19,Cc1cc2c(cc1S(=O)(=O)Nc1ccccc1Cl)OCC(=O)N2 [BC181380],0.1 to 1 µM
20,COc1ccc(NS(=O)(=O)c2cc3c(cc2C)N(C(C)=O)CCO3)cc1OC [BC181381],> 10 µM
21,COc1ccc(NS(=O)(=O)c2cc3c(cc2C)N(C(C)=O)CCO3)c(OC)c1 [BC181382],> 10 µM
22,CC(=O)N1CCOc2cc(S(=O)(=O)Nc3ccc(C)c(F)c3)c(C)cc21 [BC181383],0.1 to 1 µM
23,Cc1cc2c(cc1S(=O)(=O)Nc1ccc(C(C)C)cc1)OCCN2C [BC181384],1 to 10 µM
24,CC(=O)Nc1ccc(NS(=O)(=O)c2cc3c(cc2C)NC(=O)CO3)cc1 [BC181385],> 10 µM

# Same assay, conditions: read-out: IC50 (NF-κB assay)
row,SMILES,IC50
1,CC(=O)N1CCOc2cc(S(=O)(=O)Nc3ccccc3C)c(C)cc21 [BC181351],> 10 µM

# Test system: TNF release
# Test: TNF assay: TNF release from LPS-stimulated human PBMCs (TNF ELISA)
# Type: cell-based
# Settings: PBMC; LPS-stimulated human PBMCs, TNF ELISA; read-out: IC50 (TNF assay)
# Method: 25k THP1-NF-κB-LUC cells were dispensed into 384 well plate (per well). Cells were treated with compounds with various concentrations for 2 hours before addition of LPS (10 ng/mL) for 18 hours. Secreted luciferase activity were measured using quant-luc reagents (1 bag of luc reagent dilute to 40 mL, use 10 μL per well). Data were normalized to vehicle control and graphed. Compound IC50 towards inhibiting NF-κB were determined through Prism. Similarly, 10k human PBMCs cells were cultured in 384 well plate (per well). Cells were treated with compounds with various concentrations for 2 hours before addition of LPS (10 ng/ml) for 18 hours, and supernatants were collected and assayed for TNF ELISA. Compound IC50 towards inhibiting TNF release were determined through Prism. • Activity: “+”>10 μM, “++”>1 μM and <10 μM, “+++”>0.1 μM and <1 μM, “++++”<0.1 μM.
row,SMILES,IC50
1,CC(C)S(=O)(=O)[C@@H]1CN(Cc2ccccc2)C[C@H]1S(=O)(=O)c1ccc(F)cc1 (racemic) [BC19643],> 10 µM
2,CC(=O)N1C[C@@H](S(=O)(=O)c2ccc(F)cc2)[C@H](S(=O)(=O)C(C)C)C1 (racemic) [BC19670],1 to 10 µM
3,CC(C)S(=O)(=O)[C@H]1CN(C(=O)c2ccccc2)C[C@@H]1S(=O)(=O)c1ccc(F)cc1 (racemic) [BC19683],1 to 10 µM
4,CC(C)S(=O)(=O)[C@H]1CN(C2CCOCC2)C[C@@H]1S(=O)(=O)c1ccc(F)cc1 (racemic) [BC19684],> 10 µM
5,Cn1cnnc1-c1ccc2nc(-c3ccc(F)cc3)c(-c3ccc(F)cc3)nc2c1 [BC19101],> 10 µM
6,Cc1nnc(-c2ccc3nc(-c4ccc(F)cc4)c(-c4ccc(F)cc4)nc3c2)[nH]1 [BC19102],> 10 µM
